Earlier results as cited in patent US9968093B1, “Development and manufacturing process of powdered additive for its use in coatings or substrates to repel, reduce and control insects” (priority 2016, dated 2018).
“Also recorded” adds a separate entry of the source. Read-outs that look alike come from different tables or passages of the source.

Assays:
[1] = for Toxicity: toxicity in words
[2] = for Time to decompose (Mean life): aqueous medium; for Stability in aqueous medium, in words: pH as stated in the value

OB(O)O [Boric acid]
Toxicity (group) [1]: Group II
Toxicity [1]: Mildly toxic

CNC(=O)Oc1cccc2c1OC(C)(C)C2 [Carbofuran]
Toxicity (group) [1]: Group II
Toxicity [1]: Mildly toxic

CCOP(=S)(OCC)Oc1nc(Cl)c(Cl)cc1Cl [Chlorpyrifos]
Time to decompose (Mean life) ([2]; pH 10): 7 days
Stability in aqueous medium, in words [2]: stable in neutral and lightly

CCOP(=S)(OCC)Oc1ccc2c(C)c(Cl)c(=O)oc2c1 [Coumaphos]
Toxicity [1]: Toxic

CC1(C)C(C=C(Cl)Cl)C1C(=O)OC(C#N)c1cccc(Oc2ccccc2)c1 (stereo not shown) [Cypermethrin]
Time to decompose (Mean life) ([2]; pH 9): 7 days

C=CCC1=C(C)C(OC(=O)C2C(C=C(C)C)C2(C)C)CC1=O [D-allethrin]
Time to decompose (Mean life) ([2]; pH 7): 500 days
Time to decompose (Mean life) ([2]; pH 9): (4.3 days)
Stability in aqueous medium, in words [2]: Stable at pH 5 after 31 days

CC1(C)[C@H](C(=O)O[C@H](C#N)c2cccc(Oc3ccccc3)c2)[C@@H]1C=C(Br)Br [Deltamethrin]
Time to decompose (Mean life) ([2]; pH 7): 0.33 days
Stability in aqueous medium, in words [2]: more stable in medium acid solutions

CCOP(=S)(OCC)Oc1cc(C)nc(C(C)C)n1 [Diazinon]
Time to decompose (Mean life) ([2]; pH 5): 31 days
Time to decompose (Mean life) ([2]; pH 7.5): 185 days
Time to decompose (Mean life) ([2]; pH 9): 136 days

O=C(NC(=O)c1c(F)cccc1F)Nc1ccc(Cl)cc1 [Diflubenzuron]
Stability in aqueous medium, in words [2]: Stable in pH between 5 and 7; also recorded: Hydrolyzed at pH 9

CCOC(=O)CC(SP(=S)(OC)OC)C(=O)OCC (stereo not shown) [Malathion]
Stability in aqueous medium, in words [2]: Quickly hydrolyzed at pHs over 7. The optimal pH

CCN(CC)c1nc(C)cc(OP(=S)(OC)OC)n1 [Methyl pirimiphos]
Time to decompose (Mean life) ([2]; pH 5): 7 days
Time to decompose (Mean life) ([2]; pH 8): 5 days

CC1(C)C(C=C(Cl)Cl)C1C(=O)OCc1cccc(Oc2ccccc2)c1 (stereo not shown) [Permethrin]
Stability in aqueous medium, in words [2]: Stable at pH between 5 and 6.

CC(COc1ccc(Oc2ccccc2)cc1)Oc1ccccn1 (stereo not shown) [Pyriproxyfen]
Stability in aqueous medium, in words [2]: Stable in a pH range between 4 and 9.
